“And” between values parts separate entries of the source, which are not always exact repeats. Equal values may be shown once.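 Protocol summary: plate cells (96-well), add compound at 5 concentrations, incubate 48 h, interpolate endpoints linearly. Here, GI50 denotes the concentration required for 50% inhibition of growth. The concentration for full growth arrest is given as TGI.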
Key:
Experiment in all cases: NCI anticancer screen, dose series, 48 h
OVCAR-5 ovarian = test system: OVCAR-5 ovarian
OVCAR-3 ovarian = test system: OVCAR-3 ovarian
UACC-62 melanoma = test system: UACC-62 melanoma
OVCAR-4 ovarian = test system: OVCAR-4 ovarian
MALME-3M melanoma = test system: MALME-3M melanoma
SW-620 colon = test system: SW-620 colon
MDA-MB-231 breast = test system: MDA-MB-231 breast
OVCAR-8 ovarian = test system: OVCAR-8 ovarian
EKVX NSCLC = test system: EKVX NSCLC
A498 renal = test system: A498 renal

SMILES | GI50 (OVCAR-5 ovarian) [µM] | TGI (OVCAR-5 ovarian) | GI50 (OVCAR-3 ovarian) [µM] | TGI (OVCAR-3 ovarian) | GI50 (UACC-62 melanoma) [µM] | TGI (UACC-62 melanoma) | GI50 (OVCAR-4 ovarian) [µM] | TGI (OVCAR-4 ovarian) | GI50 (MALME-3M melanoma) [µM] | TGI (MALME-3M melanoma) | GI50 (SW-620 colon) [µM] | TGI (SW-620 colon) | GI50 (MDA-MB-231 breast) [µM] | TGI (MDA-MB-231 breast) [µM] | GI50 (OVCAR-8 ovarian) [µM] | TGI (OVCAR-8 ovarian) [µM] | GI50 (EKVX NSCLC) [µM] | TGI (EKVX NSCLC) | GI50 (A498 renal) [µM] | TGI (A498 renal)
c1ccc(Oc2cnc3ccccc3n2)cc1 | > 100 | > 100 µM | > 100 | > 100 µM | 85.3 | > 100 µM | > 100 | > 100 µM | > 100 | > 100 µM | > 100 | > 100 µM | > 100 | > 100 | > 100 | > 100 | 77.4 | > 100 µM | 14.7 | > 100 µM
COc1ccc(-n2cc(-c3ccc(F)cc3)[nH]c2=O)cc1OC | > 100 | > 100 µM | > 100 | > 100 µM | > 100 | > 100 µM | > 100 | > 100 µM | > 100 | > 100 µM | > 100 | > 100 µM | > 100 | > 100 | 82.1 | > 100 | > 100 | > 100 µM | > 100 | > 100 µM
CCCCCCCCCCCC(=O)[O][Sn]([CH2]CCC)([CH2]CCC)[CH2]CCC | 0.0548 | 0.164 µM | 0.0518 | 0.125 µM | 0.0515 | 0.11 µM | < 0.0212 | 0.153 µM | 0.0211 | 0.0772 µM | 0.0419 | 0.138 µM | 0.0317 | 0.113 | 0.0842 | 0.363 | – | – | 0.0241 | 0.0883 µM
O=c1c(Br)ccc(Br)cc1Br | 1.76 | 3.46 µM | 0.926 | 2.18 µM | 1.75 | 3.27 µM | 2.47 | 4.63 µM | 1.85 | 4.05 µM | 0.268 | 0.673 µM | 1.99 | 3.68 | 2.75 | 8.78 | 1.71 | 3.39 µM | 14.7 | 28.5 µM
COC(=O)/C=C/c1cc(OC)c2c(c1)[C@@H](C(=O)OC)[C@H](c1ccc(OC)c(OC)c1)O2 | 5.23 | > 100 µM | – | – | 0.972 | > 100 µM | 4.76 | > 100 µM | > 100 | > 100 µM | 0.561 | > 100 µM | 7.39 | > 100 | 4.53 | > 100 | 4.62 | > 100 µM | 1.06 | 33 µM
CCCCCCOc1ccc(/C=N/Nc2cc(C)nc3ccc(Br)cc23)cc1 | 1.94 | 3.36 µM | 1.94 | 3.65 µM | 1.74 | 3.24 µM | 1.81 | 3.46 µM | 1.87 | 3.38 µM | 1.56 | 3.56 µM | 1.62 | 3.08 | 2.07 | 4.12 | 1.72 | 3.14 µM | 1.58 | 3.09 µM
COc1nc(C(Cl)(Cl)Cl)c(Cl)c(OC)c1Cl | – | > 72.4 µM and 78.7 µM | > 43.4 | > 61.1 µM and 72.6 µM | > 50.4 | > 88.8 µM and 54.5 µM | > 52.1 | 99.9 µM and 66.3 µM | > 45.4 | > 65.8 µM and 64.4 µM | > 49.3 | > 74.8 µM and 75 µM | – | 72.5 | > 61.5 | 55.6 | > 55.4 | > 94.7 µM and 78.3 µM | > 35.9 | > 55.7 µM and 96.2 µM
O=c1c(-c2nc3ccccc3[nH]2)cc2ccccc2n1Cc1cn(Cc2ccc(F)cc2)nn1 | 0.287 | 7.84 µM | 0.15 | 0.911 µM | 0.437 | 50.7 µM | 1.35 | > 100 µM | 0.213 | 66.4 µM | 0.0672 | > 100 µM | 0.313 | 8.41 | 0.139 | > 100 | 0.799 | > 100 µM | 0.127 | 0.716 µM
COc1cc(-c2cc(C(=O)N3CCN(C(=O)c4ccccc4NCc4cccs4)CC3)nc3cc(-c4ccccc4)nn23)cc(OC)c1OC | 15.1 | > 100 µM | 3.03 | 11.3 µM | 2.8 | > 100 µM | 5.55 | > 100 µM | > 100 | > 100 µM | 4.7 | > 100 µM | 8.67 | > 100 | 30.3 | > 100 | 53.9 | > 100 µM | 8.44 | > 100 µM
COc1ccc2nc3c(cc2c1)C(=O)CC(C(F)(F)F)C3 (centres undefined) | 5.56 | > 100 µM | 1.65 | 6.89 µM | 0.602 | > 100 µM | 27 | > 100 µM | 2.57 | > 100 µM | 2.68 | > 100 µM | 2.34 | > 100 | 1.22 | > 100 | 4.46 | > 100 µM | 0.278 | 1.55 µM
CC(=O)SC(C[N+](=O)[O-])c1ccccc1 (centres undefined) | – | 9.11 µM | – | 20.7 µM | – | 28.5 µM | – | 5.46 µM | – | 35.9 µM | – | 5.6 µM | – | 27 | – | 26 | – | 16 µM | – | 20.7 µM
NC1=C(O)/C(=N/NS(=O)(=O)c2ccccc2)C(c2cccc(Cl)c2)O1 (centres undefined) | – | > 90.4 µM | – | 55.5 µM | – | 66.7 µM | – | > 100 µM | – | 54.8 µM | – | 35.8 µM | – | 37.6 | – | > 67.8 | – | > 100 µM | – | > 100 µM
COc1cc(/C=C/C(=O)c2ccc(SC)cc2)cc(OC)c1OC | 20.6 | 35.6 µM | 10.9 | 23.8 µM | 3.46 | 13.5 µM | – | – | 6.31 | 26.1 µM | 6.89 | 21.6 µM | 4.46 | 17.2 | 2.44 | 5.85 | 14.9 | 29.4 µM | 0.936 | 17.1 µM
COc1cccc(-c2nn(C)c3sc(C(=O)NCCN4CCN(c5ccccc5F)CC4)cc23)c1 | 6.55 | 96.6 µM | 20.6 | > 100 µM | 10.5 | 84.5 µM | 19.1 | > 100 µM | 9.49 | 53.5 µM | 33.7 | > 100 µM | 3.87 | 62.4 | 7.85 | > 100 | – | – | 1.29 | 27.3 µM
C/C(=N\O)c1ccc(Nc2cc(-c3ccccc3)nc3c(O)cccc23)cc1 | 23.8 | 47.4 µM | 5.49 | 31.7 µM | 13.4 | 27.1 µM | 25.4 | 73.2 µM | 16.1 | 30.3 µM | 13.9 | 34.2 µM | 2.46 | 11.8 | 6.99 | 29.2 | 18.9 | > 100 µM | 14.5 | 31 µM
O=C1/C=C/[C@@H](O)[C@@H]2C[C@@H](O)C[C@H]2/C=C/CCCCO1 | 0.682 | > 61.7 µM | 0.202 | 0.468 µM | 0.416 | > 100 µM | 0.47 | > 100 µM | 0.321 | 3.24 µM | 0.247 | 0.752 µM | 0.298 | 1.31 | 0.516 | > 100 | 0.519 | > 21.4 µM | 0.166 | 1.92 µM
Clc1ccc2c(NCCCNCc3ccc4c(c3)OCO4)ccnc2c1 | 5.41 | 18.8 µM | 5.14 | 18.7 µM | 2.02 | 3.89 µM | 10.8 | 24.8 µM | 1.86 | 3.48 µM | 2.96 | 11.1 µM | 1.72 | 5.78 | 3.64 | 13.1 | 9.4 | 24 µM | 14.4 | 27.6 µM
COc1ccc(S(=O)(=O)Nc2c(/C=C\c3cc(OC)c(OC)c(OC)c3)ccc(OC)c2O)cc1OC | 0.751 | > 100 µM | 0.21 | – | 0.053 | > 100 µM | 0.664 | > 100 µM | > 100 | > 100 µM | 0.167 | > 100 µM | 0.338 | > 100 | 0.416 | > 100 | 0.452 | > 100 µM | 0.0413 | 0.291 µM
C=CCOc1ccc2c(c1)CC[C@@H]1[C@@H]2CC[C@]2(C)C(=O)/C(=N/O)C[C@@H]12 | 4.18 | > 45.4 µM | 7.06 | 25.9 µM | 14.6 | 32.5 µM | 2.17 | 8.6 µM | 18 | 44.4 µM | 2.33 | 12.2 µM | 1.85 | 5.09 | 9.45 | > 60.2 | – | – | 1.97 | 21.3 µM
Cn1cc(C2=C(c3cn(CCCN/C(N)=N\[N+](=O)[O-])c4ccccc34)C(=O)NC2=O)c2ccccc21 | 11.4 | > 25 µM | 1.17 | 11.4 µM | 3.1 | 7.59 µM | 3.22 | 17.4 µM | 6.38 | 15.9 µM | 5.63 | > 22.1 µM | 3.8 | 16.5 | 3.98 | > 18.5 | – | – | 2.85 | 9.6 µM
O=C1COCCN1c1ccc(NCc2cn(Cc3ccc(F)cc3)c3ccccc23)cc1 | 0.0418 | 0.231 µM | 0.313 | 2.96 µM | 0.0978 | 0.617 µM | 0.173 | 3 µM | 3.47 | 15.4 µM | 0.562 | > 52.6 µM | 4.9 | 27.5 | 4.3 | > 86.8 | 10.8 | > 66.7 µM | 0.0203 | 0.0821 µM
Nc1c(C(=O)Nc2cccc3ccccc23)sc2nc3c(cc12)CCCCCC3 | 2.7 | > 50 µM | 0.979 | 2.8 µM | 1.62 | > 50 µM | 5.75 | > 50 µM | > 50 | > 50 µM | 1.45 | > 50 µM | 2.75 | > 50 | 2 | > 50 | 2.9 | > 50 µM | 2.48 | 42.5 µM
COc1cc(-c2nc3cc(Cl)c(Cl)cc3[nH]2)ccc1OCC(=O)N=Nc1c(O)[nH]c2ccccc12 | 0.84 | 2.45 µM | 0.409 | 1.43 µM | 1.41 | 2.75 µM | 0.307 | 0.921 µM | 0.226 | 0.683 µM | 0.355 | 1.43 µM | 0.45 | 1.69 | 0.327 | 1.59 | 2.02 | 21.7 µM | 1.46 | 3.37 µM
Nc1nc(-c2ccccc2Cl)cc(-c2ccc(Cl)cc2Cl)n1 | 8.09 | > 100 µM | 4.05 | 20.7 µM | 5.93 | 44.2 µM | 12.1 | 89.7 µM | 17.7 | > 100 µM | 3.41 | > 100 µM | 9.3 | > 100 | 6.87 | > 100 | – | – | 3.34 | 22.8 µM
Nc1c(S(=O)(=O)O)cc2c(c1Cl)C(=O)c1ccccc1C2=O | > 100 | > 100 µM | > 100 | > 100 µM | > 100 | > 100 µM | – | – | > 100 | > 100 µM | > 100 | > 100 µM | > 100 | > 100 | > 100 | > 100 | > 100 | > 100 µM | > 100 | > 100 µM
O=C(Nc1ccc(-n2cc(-c3ccncc3)c(-c3ccc(Cl)c(O)c3)n2)cc1)c1ccc(Cl)c(C(F)(F)F)c1 | 5.25 | 29.4 µM | 2.03 | 6.24 µM | 2.21 | 7.6 µM | 3.66 | > 90.4 µM | – | – | 1.48 | 3.14 µM | 0.322 | 1.48 | 2.82 | > 46 | 4.65 | > 25 µM | 5.53 | 34.9 µM
